According to patent publication US6207393A, “Inhibition of intracellular signal transduction by 14-3-3-binding peptides” (Washington University, priority 1999, dated 2001):
Where “and” joins values, the source holds several entries; their conditions need not be identical. Equal entries are not always repeated. Where a SMILES comes first, the peptide text is derived from it. [ ]: non-standard residue; d: D form. pS = N[C@@H](COP(=O)(O)O)C(=O)O

Tests used:
14-3-3 zeta [1] = biological target: T1, 14-3-3 zeta (Homo sapiens, UniProt P63104); assay: Displacement of 32P-labeled phosphorylated Raf-259 peptide from immobilized GST/14-3-3 zeta (scintigraphy); format: binding; conditions: non-radiolabeled competitors
T1 construct: made in house; host or cells: E. coli DH5α (vector pGEX-KT)
T1 sequence (P63104 1-245): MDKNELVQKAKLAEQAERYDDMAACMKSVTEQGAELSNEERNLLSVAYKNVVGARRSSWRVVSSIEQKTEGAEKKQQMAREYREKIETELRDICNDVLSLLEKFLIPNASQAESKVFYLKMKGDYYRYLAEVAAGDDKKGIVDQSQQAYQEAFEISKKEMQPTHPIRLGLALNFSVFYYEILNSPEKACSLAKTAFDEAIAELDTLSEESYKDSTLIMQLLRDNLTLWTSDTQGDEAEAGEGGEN
Description: The 14-3-3 protein isoforms for use in binding studies with the above peptides were prepared as proteins fused with glutathione-S-transferase (GST) and immobilized to glutathione agarose beads. GST/14-3-3 fusion proteins were made by generating BamHI and EcoRI restriction endonuclease sites (underlined) at the 5' and 3' ends respectively of the 14-3-3 cDNAs by polymerase chain reaction (PCR) using the following isoform sequence specific pairs of primers: 14-3-3 beta, […] (SEQ ID NO: 11), […] (SEQ ID NO: 12); 14-3-3 eta […] (SEQ ID NO: 13), […] (SEQ ID NO: 14); 14-3-3 tau […] (SEQ ID NO: 15), […] (SEQ ID NO: 16); 14-3-3 zeta […] (SEQ ID NO: 17), […] (SEQ ID NO: 18). The cDNA products were digested with BamHI and EcoRI, subcloned into the vector pGEX-KT (Guan and Dixon, Anal Biochem 192: 262-7, 1991 which is incorporated by reference). The vector was used to transform the DH5α strain of E. Coli. GST-14-3-3 fusion protein expression in log-growth phase bacterial cultures was accomplished by induction with 100 μM isopropyl β-D-thiogalactopyranoside (IPTG; Gold Biotechnology, St. Louis) for 4 hours. Cells were disrupted by sonication and lysates, containing 1% Triton X-100, were incubated with glutathione agarose beads (Sigma, St. Louis) at 4° C. overnight. Fusion proteins were eluted by incubation with 10 mM reduced glutathione (Sigma, St. Louis) in phosphate buffered saline for 1 hour at room temperature, dialyzed in phosphate buffered saline and quantitated by Coomassie staining SDS polyacrylamine gels compared against bovine serum albumin standards.
The Raf-259 peptide (SEQ ID NO: 4) was phosphorylated in vitro using protein kinase A (PKA) and [^32 P]-γ-ATP following the manufacturers instruction (PKA, New England Biolabs) with 20 μCi of [^32 P]-γ-ATP (NEN-Dupont, 6000 Ci/mmol). The efficiency of phosphorylation was calculated to be between 7 and 12% based upon the specific activity of the labelled peptide.
The labeled peptide was then incubated with immobilized 14-3-3 zeta fusion protein and binding of the labelled peptide was measured. […] Binding was also sequence specific. […]

14-3-3 zeta [2] = biological target: T1, 14-3-3 zeta; assay: SPR competitive inhibition of 14-3-3 zeta binding to chip-coupled phosphorylated Raf-259 peptide; conditions: 14-3-3 zeta 0.5-1.0 μM; competitor 1-50 μM; relative affinity only
Description: (§1) The ability of each peptide to inhibit binding of 14-3-3 zeta to the phosphorylated peptide was then tested in a range of concentrations between 1 and 50 μM. 14-3-3 zeta was prepared according to the methods in Example 1 and binding affinities and specificities were determined using the peptides in Table 2. The 14-3-3 zeta fusion proteins (0.5-1.0 μM) were pre-incubated with a given peptide at concentrations between 1 μM and 50 μM. 14-3-3 zeta was then infused across a sensor chip surface which had been previously coupled with the phosphorylated Raf-259 peptide (SEQ ID NO: 4). IC50 values were determined by plotting the concentration of competitor peptide required to achieve a 50% reduction in equilibrium binding.

14-3-3 eta = biological target: T2, 14-3-3 eta (Homo sapiens, UniProt Q04917); assay: SPR competitive inhibition of 14-3-3 eta binding to phosphorylated Raf-259 peptide; conditions: isoform eta
T2 construct: made in house; host or cells: E. coli DH5α (vector pGEX-KT)
T2 sequence (Q04917 1-246): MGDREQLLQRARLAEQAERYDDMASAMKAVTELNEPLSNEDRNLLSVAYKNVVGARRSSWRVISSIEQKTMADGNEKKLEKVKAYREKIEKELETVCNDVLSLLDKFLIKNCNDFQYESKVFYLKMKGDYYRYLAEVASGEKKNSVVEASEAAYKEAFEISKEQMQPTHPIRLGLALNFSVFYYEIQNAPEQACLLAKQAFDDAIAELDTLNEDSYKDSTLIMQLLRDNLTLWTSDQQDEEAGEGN
Description: as §1
(§2) There are seven known isoforms of 14-3-3 which form homo- and heterodimers in vivo. If different isoforms of 14-3-3 could bind to proteins with distinct specificities, heterodimeric forms of 14-3-3 might function as modular linker proteins, bringing together different proteins into a single complex. We were, therefore, interested in determining whether different 14-3-3 isoforms recognize phosphoserine in a sequence specific fashion. This hypothesis was tested by expressing and purifying three other 14-3-3 isoforms, eta, beta and tau, and measuring their affinity towards the panel of phosphorylated peptides generated above. Using the Surface Plasmon Resonance method, the "on" and "off" rates for 14-3-3 binding to the phosphorylated Raf-259 peptide were calculated (Table 6).
(§3) Competitive inhibition with the mutated phosphorylated Raf-1 peptides was used to determine whether their specificities were similar (Table 7). In each case, the calculated IC50 s were very similar to those calculated for 14-3-3 zeta.

14-3-3 beta = biological target: T3, 14-3-3 beta (Homo sapiens, UniProt P31946); assay: SPR competitive inhibition of 14-3-3 beta binding to phosphorylated Raf-259 peptide; conditions: isoform beta
T3 construct: made in house; host or cells: E. coli DH5α (vector pGEX-KT)
T3 sequence (P31946 1-246): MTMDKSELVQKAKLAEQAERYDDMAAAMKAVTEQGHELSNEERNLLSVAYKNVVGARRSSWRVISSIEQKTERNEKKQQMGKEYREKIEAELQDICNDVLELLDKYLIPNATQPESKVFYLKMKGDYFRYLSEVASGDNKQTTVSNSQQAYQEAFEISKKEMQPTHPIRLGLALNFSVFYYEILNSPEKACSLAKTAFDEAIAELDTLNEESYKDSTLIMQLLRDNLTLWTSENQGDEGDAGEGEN
Description: as §1, §2, §3

14-3-3 tau = biological target: T4, 14-3-3 tau (Homo sapiens, UniProt P27348); assay: SPR competitive inhibition of 14-3-3 tau binding to phosphorylated Raf-259 peptide; conditions: isoform tau
T4 construct: made in house; host or cells: E. coli DH5α (vector pGEX-KT)
T4 sequence (P27348 1-245): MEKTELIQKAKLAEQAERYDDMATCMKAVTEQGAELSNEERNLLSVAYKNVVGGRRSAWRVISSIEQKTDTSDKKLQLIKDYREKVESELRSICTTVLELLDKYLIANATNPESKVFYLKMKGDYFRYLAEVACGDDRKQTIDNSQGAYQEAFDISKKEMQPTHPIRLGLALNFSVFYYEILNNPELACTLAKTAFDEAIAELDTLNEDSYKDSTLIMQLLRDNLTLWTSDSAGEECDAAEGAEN
Description: as §1, §2, §3

14-3-3 protein = biological target: T5, 14-3-3 protein (Homo sapiens, UniProt P63104); assay: Degenerate peptide pools tested as competitive inhibitors of 14-3-3 binding; conditions: competitor peptide 10 μM; no peptide = 100%
T5 sequence (P63104 1-245): T1 sequence (P63104 1-245)
Description: A series of degenerate peptides based upon phosphoserine Raf-621 peptide (SEQ ID NO: 10) were synthesized to confirm that the arginine in the -3 position, the serine in the -2 position and the proline in the +2 position were the critical motif residues (Table 5). Six pools of peptides were synthesized with all twenty amino acids placed in positions -5, -3, -2, -1, +1 and +2 respectively. Each pool of twenty peptides was tested as competitive inhibitors for binding. We reasoned that if a particular position is not critical for binding, the pool of twenty peptides should compete as well as wild-type peptide for binding. On the other hand, if a particular amino acid is required at a particular position, only a small fraction of the pool will be able to compete for binding, thus increasing (up to 20 fold) the concentration of peptide needed to inhibit binding.

N[C@@H](COP(=O)(O)O)C(=O)O [free phosphoserine, phosphoserine]
displacement of bound labeled phosphorylated peptide from 14-3-3 zeta (14-3-3 zeta [1]): Neither

CC[C@H](C)[C@H](NC(=O)[C@H](CCCCN)NC(=O)[C@@H]1CCCN1C(=O)[C@@H](N)CC(C)C)C(=O)N[C@@H](CC(N)=O)C(=O)N[C@@H](CCCNC(=N)N)C(=O)N[C@@H](CO)C(=O)N[C@@H](C)C(=O)N[C@@H](COP(=O)(O)O)C(=O)N[C@@H](CCC(=O)O)C(=O)N1CCC[C@H]1C(=O)N[C@@H](CO)C(=O)N[C@@H](CC(C)C)C(=O)N[C@@H](Cc1c[nH]cn1)C(=O)N[C@@H](CCCNC(=N)N)C(=O)O [pS-Raf-621, Leu-Pro-Lys-Ile-Asn-Arg-Ser-Ala-Xaa-Glu-Pro-Ser-Leu-His-Arg] (H-LPKINRSA[pS]EPSLHR-OH)
IC50 (14-3-3 zeta [2]): ~1000 nM and 1000 nM
IC50 (14-3-3 eta): 3000 nM
IC50 (14-3-3 beta): 2000 nM
IC50 (14-3-3 tau): 2000 nM
% BINDING @ 10 μM (14-3-3 protein): < 5%
